Assay: Solubility of tacrolimus in oil solvents measured by HPLC
Format: physicochemical
Experimental: In this Example, the solubility of tacrolimus in various oil solvents was measured by HPLC.
Approximately 40 mg of tacrolimus was weighed and a known quantity (1-2 g) of oil was added and stirred for 5 hours at room temperature. […] If the tacrolimus appeared to be fully dissolved in under 10 g of oil the sample was then placed at 4° C. overnight. If the tacrolimus precipitated out after cold storage further oil was added and the above steps were repeated until dissolved or the 10 g of oil had been added. All samples were then centrifuged to ensure any non-dissolved tacrolimus was removed and the supernatant analysed by HPLC as described in Example 1.

Structure (SMILES): C=CC[C@@H]1/C=C(\C)C[C@H](C)C[C@H](OC)[C@H]2O[C@@](O)(C(=O)C(=O)N3CCCC[C@H]3C(=O)O[C@H](/C(C)=C/[C@@H]3CC[C@@H](O)[C@H](OC)C3)[C@H](C)[C@@H](O)CC1=O)[C@H](C)C[C@@H]2OC [tacrolimus]
- Solubility (% wt) (tacrolimus in Capric caprylic trigylcerides): 0.44 % wt
- Solubility (% wt) (tacrolimus in Castor oil): 1.44 % wt
- Solubility (% wt) (tacrolimus in Cyclomethicone): 0.004 % wt
- Solubility (% wt) (tacrolimus in Dibutyl adipate, room temperature, then 4° C. overnight, *assay within 95% of theoretical maximum, likely solubility greater than stated): 3.24* % wt
- Solubility (% wt) (tacrolimus in Diethyl sebacate, room temperature, then 4° C. overnight, *assay within 95% of theoretical maximum, likely solubility greater than stated): 3.26* % wt
- Solubility (% wt) (tacrolimus in Diisopropyl adipate, room temperature, then 4° C. overnight, *assay within 95% of theoretical maximum, likely solubility greater than stated): 3.08* % wt
- Solubility (% wt) (tacrolimus in Dimethicone): 0.004 % wt
- Solubility (% wt) (tacrolimus in Heptylmethylnonane): 0.006 % wt
- Solubility (% wt) (tacrolimus in Isopropyl isostearate): 0.19 % wt
- Solubility (% wt) (tacrolimus in Isopropyl myristate): 0.25 % wt
- Solubility (% wt) (tacrolimus in Isopropyl palmitate): 0.26 % wt
- Solubility (% wt) (tacrolimus in Mineral oil): 0.003 % wt

Source: US12447146B2, “Topical composition comprising tacrolimus” (MC2 Therapeutics Limited, priority 2016, dated 2025)
